16 compounds from ChEMBL document CHEMBL4303082, “A Large-scale Drug Repositioning Survey for SARS-CoV-2 Antivirals” (2020) can be followed below.

Square brackets hold non-standard residues; d marks the D form. Peptide text beside a SMILES is read from it. * marks the point of attachment. ξ: configuration not given here. ξF = NC(Cc1ccccc1)C(=O)O; Cbz = O=C(OCc1ccccc1)*; CHN2 = [N-]=[N+]=C*

Usually EC50 stands for the midpoint of the concentration-response curve. The low end stands for higher potency in that assay, the high end for lower potency in that assay.

This test has as its system SARS-CoV-2. The experiment in a line: Determination of antiviral efficacy in high-content imaging assay in Vero E6 cells infected with SARS-CoV-2 (USA-WA1/2020 isolate) at MOI 0.75 after 24 hrs. The format is functional, organism-based, Chlorocebus sabaeus. The conditions noted are these: Severe acute respiratory syndrome coronavirus 2, Vero C1008, 24 h.

As to `COc1cc2c(cc1N1C[C@@H](C)N[C@@H](C)C1)N(C(=O)c1ccc(-c3ccc(-c4noc(C)n4)cc3C)cc1)CC2`, a half-maximal response (EC50) required 1200 nM. This counts as single-digit micromolar.
Regarding `C[C@@H]1CN(c2ncc(C(O)CO)cc2Cl)CCN1c1nc2c(-c3cc(F)c(F)c(F)c3)cc(C(F)(F)F)cc2[nH]1` (stereo partly specified), a half-maximal response (EC50) required 950 nM.
The same measure for `C1=C(c2ccc(CN3CCCCC3)cc2)N2CCN=C2c2ccccc21`: 750 nM; for `CCC(CC)COC(=O)[C@H](C)N[P@](=O)(OC[C@H]1O[C@@](C#N)(c2ccc3c(N)ncnn23)[C@H](O)[C@@H]1O)Oc1ccccc1`: 620 nM; for `CCNC/C=C\CNCCCCNCCCCNC/C=C\CNCC`: 250 nM.
The same measure for `CC[C@H](NC(=O)[C@H](CS(=O)(=O)CC1CC1)N[C@@H](c1ccc(F)cc1)C(F)(F)F)C(=O)C(=O)NC1CC1`: 300 nM.
For the compound `CN(C)CCn1c(C(=O)N2CCN(c3ccccc3Cl)CC2)c(C(c2ccc(O)cc2)c2ccc(O)cc2)c2ccccc21`, a half-maximal response (EC50) required 1200 nM.
For `COc1cccc2c(N3CCc4ccccc4C3C)nc(Nc3ccc(F)cc3C)nc12` (stereo unspecified), a half-maximal response (EC50) required 950 nM. This EC50 and that of the compound before are within 1.5-fold of each other.
The same measure for `CC(C)(O)c1ccc2c(c1)/C(=C/CCN1CC[C@](O)(c3ccc(Cl)cc3)C(C)(C)C1)c1cccnc1CO2`: 140 nM.
The same measure for `C[C@@H]1CS/C(=N\NC(=O)C(=O)[C@@H](NC(=O)C2CCCCCC2)C2CCOCC2)N1C`: 500 nM; for `CC(C)CC(NC(=O)OCc1ccccc1)C(=O)NC(C(=O)NCC(=O)C=[N+]=[N-])C(C)C` (stereo not drawn) (Cbz-Leu-Val-Gly-CHN2; configuration not given here): 190 nM.
The same measure for `CC(C)[C@H](NC(=O)OCc1ccccc1)C(=O)NC(C=O)Cc1ccccc1` (stereo partly drawn) (Cbz-Val-[ξF]-aldehyde): 220 nM; for `Cc1cccc(/C=N/Nc2cc(N3CCOCC3)nc(OCCc3ccccn3)n2)c1` [APILIMOD]: 23 nM; for `Fc1ccc(-c2ccc(CN3CCN(c4cccc5ccoc45)CC3)[nH]2)cc1` [ELOPIPRAZOLE]: 1100 nM.
`COc1ccc2cc1Oc1ccc(cc1)C[C@H]1c3cc(c(OC)cc3CCN1C)Oc1c(OC)c(OC)cc3c1[C@H](C2)N(C)CC3` [FANCHININ] gave an EC50 of 1100 nM.
The compound `CC(C)(C)NCc1ccc(Nc2ccnc3cc(Cl)ccc23)cc1O` [GSK-369796] returned a concentration for a half-maximal effect (EC50) of 1200 nM.
